7 compounds from ChEMBL document CHEMBL3430912, “GSK Tres Cantos Anti-Kinetoplastid Screening (TCAKS) Data” can be followed below.

The subject of series [1] is Leishmania donovani. In words: GSK_TCAKS: pIC50 Leishmania donovani Imaging: Infected Macrophages. Assay plates (384-well) were prepared by adding 250nL of compound to each well. For single shot assay, the final compound concentration was 5 uM. […] Automated image analysis was performed with a script developed on Acapella High Content Imaging and Analysis Software (PerkinElmer). Output: Percent of infected macrophage cells were reported for each well. The settings on record: THP-1. It counts as functional, organism-based, Homo sapiens.

Series [2] is described as follows: GSK_TCAKS: pIC50 HepG2 human cell line viability assay using luminiscence. […] Seeding density was checked to ensure that new mono-layers were not more than 50% confluent at the time of harvesting. Cell suspension was added to 500 mL of the same medium at a final density of 1.2 * 10^5 cells/mL. This cell suspension was dispensed (25 uL, 3000 cells per well) into 384-well clear-bottom plates using a Multidrop Combi dispenser. Prior to addition of the cell suspension, the screening compounds (250 nL) were pre-dispensed into the plates with an Echo liquid handler. Plates were incubated for 48 h at 37C, 5% CO2. After incubation, plates equilibrated at room temperature for 30 min before proceeding to develop the luminescent signal. The signal developer, CellTiter-Glo Reagent, was allowed to equilibrate at room temperature for 30 min and added to the plates (25uL per well) using a Multidrop Combi dispenser. Plates were left for 10 min at room temperature for stabilization and then read using a ViewLux. The class given is toxicity, cell-based.

The target in series [3] is Sterol 14-alpha demethylase (Trypanosoma cruzi (strain CL Brener), UniProt Q7Z1V1). In words: GSK_TCAKS: pIC50 CYP51 from Trypanosoma cruzi. It counts as functional.
Sequence of Sterol 14-alpha demethylase (Q7Z1V1 whole entry): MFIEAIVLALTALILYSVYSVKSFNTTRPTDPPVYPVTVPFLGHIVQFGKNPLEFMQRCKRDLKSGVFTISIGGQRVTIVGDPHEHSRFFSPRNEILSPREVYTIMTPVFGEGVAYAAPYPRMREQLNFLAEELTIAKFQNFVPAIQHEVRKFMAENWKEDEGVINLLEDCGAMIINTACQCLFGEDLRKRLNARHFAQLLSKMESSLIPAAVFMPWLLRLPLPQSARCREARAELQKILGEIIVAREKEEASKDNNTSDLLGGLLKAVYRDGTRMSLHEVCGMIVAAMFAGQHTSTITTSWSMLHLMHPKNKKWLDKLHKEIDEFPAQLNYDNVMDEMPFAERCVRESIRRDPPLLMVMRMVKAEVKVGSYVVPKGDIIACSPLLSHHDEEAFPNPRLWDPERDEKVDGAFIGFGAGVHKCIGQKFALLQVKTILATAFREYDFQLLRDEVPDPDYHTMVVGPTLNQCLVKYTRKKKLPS
The subject of series [4] is Leishmania donovani. In words: GSK_TCAKS: pIC50 Leishmania donovani Imaging: THP-1 Host Macrophages. Assay plates (384-well) were prepared by adding 250nL of compound to each well. For single shot assay, the final compound concentration was 5 uM. […] Automated image analysis was performed with a script developed on Acapella High Content Imaging and Analysis Software (PerkinElmer). Output: THP-1 cell count were reported for each well. It counts as functional, organism-based, Homo sapiens.

In series [5] the test system is NIH3T3. In words: GSK_TCAKS: pIC50 NIH 3T3 cell line viability assay using luminiscence. Tissue culture surface treated assay plates (1536-well) were used. […] The 100% cells survival control was determined exposing the host-cells to a 0.5% DMSO concentration, whereas the 100% toxicity control was achieved by seeding the cells in presence of Amphotericin B at 50uM. Plates were incubated for four days at 37C, 5% CO2. The assay readout was developed by addition of 5uL of CellTiter-Glo Reagent following the manufacturer's instructions. Luminiscence was measured using a ViewLux. The class given is functional, cell-based. The following applies: Mus musculus, NIH3T3, 96 h.

Series [6] has as its system Trypanosoma cruzi. In words: (§1) GSK_TCAKS: pIC50 H2C9 Imaging: H9c2 Host Cardiomyocytes. […] Cells were then washed once with PBS before infection. T. cruzi trypomastigotes, collected at days 5 to 8 after infection from LLC-MK2 parasite infected cultures, were allowed to swim out for 4h at 37C from a centrifuged pellet (2,500 rpm/10 min/room temperature). Trypomastigotes were then collected and counted in a CASY Cell Counter. Trypomastigotes, in supplemented DMEM, were added to H9c2 cultures in a multiplicity of infection of 1 and incubated for 18 h. Cells were washed once with PBS before incubation of the infected H9c2 monolayer with trypsin (Life-Technologies) to detach cells from the flask. Cells were counted in a CASY Cell Counter using a 150 um capillary and their density set at 5 * 10^4 cells per mL in supplemented assay DMEM. Infected H9c2 were dispensed into 384-well poly-lysine coated assay plates at 50uL per well using a Multidrop Combi dispenser. After seeding them, the plates were incubated at 37C, 5% CO2 for 72h. Cultures were then fixed and stained by addition of 50 uL of a solution containing 8% formaldehyde and 4 uM DRAQ5 DNA dye (BioStatus, UK) per well. […] Five images were collected per well for reliable statistical analysis. Automated image analysis was performed with a script developed on Acapella High Content Imaging and Analysis Software (PerkinElmer). Output: Number of H9c2 Host Cardiomyocytes nuclei to determine drug-related cytotoxicity. It counts as functional, organism-based, Rattus norvegicus. The following applies: H9c2, 4 h.

Series [7] deals with Trypanosoma cruzi. The description is as §1, with “Trypanosoma cruzi” for “H2C9”, “Infected Cells.” for “H9c2 Host Cardiomyocytes.”, “percentage” for “Number”, “infected cells per well as a second infection marker.” for “H9c2 Host Cardiomyocytes nuclei to determine drug-related cytotoxicity.”. The class given is functional, organism-based, Rattus norvegicus. The following applies: H9c2, 4 h.

For series [8], the system named is Trypanosoma brucei brucei. In words: GSK_TCAKS: pIC50 Trypanosoma brucei viability assay using fluorescence intensity. Assay plates (1536-well) were prepared by dispensing 25nL of compound solution per well using an Echo acoustic dispenser (Labcyte). It counts as functional, organism-based. The settings on record: Lister 427, 2 h.
Series [9] deals with Leishmania donovani. In words: GSK_TCAKS: pIC50 Leishmania donovani viability assay using fluorescence intensity. Assay plates (1536-well) were prepared by adding 30nL per well of compound. For single shot assay, the final compound concentration was 5uM. […] Briefly, eGFP LdBOB axenic amastigotes were harvested, fixed and counted in a CASY cell counter (Roche-Applied Science). A final concentration of 1.5 * 10^5 cells per well were prepared in amastigote media containing 500 U/mL penicillin/streptomycin (Invitrogen) and 6uL was dispensed to each experimental well using a Multidrop Combi dispenser (Thermo Scientific). 6uL of assay media was dispensed to control columns used as reference for 100% compound response. Following incubation for 72 h at 37C, 5% CO2, 2 uL of resazurin was added to each well at a final concentration of 0.5 mM in phosphate buffered saline (PBS) with IGEPAL (Sigma-Aldrich), 0.05% (v/v). It counts as functional, organism-based. For orientation: The colour change of resazurin is a common sign of viable cells or microbes.

For series [10], the system named is Leishmania donovani. In words: GSK_TCAKS: pIC50 Leishmania donovani Imaging: Amastigotes/Macrophages. Assay plates (384-well) were prepared by adding 250nL of compound to each well. For single shot assay, the final compound concentration was 5 uM. […] Automated image analysis was performed with a script developed on Acapella High Content Imaging and Analysis Software (PerkinElmer). Output: Average number of amastigotes per macrophage cell were reported for each well. It counts as functional, organism-based, Homo sapiens. The following applies: THP-1.

Series [11] relates to Trypanosoma cruzi. In words: GSK_TCAKS: pIC50 Trypanosoma cruzi viability assay using beta-GAL activity. This assay was run at single shot at 5uM compound concentration per well. The biological reagents consisted of NIH-3T3 host cells and trypomastigotes parasitic cells; both cell types were set to a 3.3 * 10^5 cells/mL dilution in assay DMEM by means of a CASY cell counter device using a 60um capillary. 6 uL of the mixture were dispensed per well (about 1 * 10^3 host-cells and 1 * 10^3 parasites) with a Multidrop Combi dispenser. […] In all wells, the percentage of DMSO never exceeded 0.5%. Plates incubated for four days at 37C, 5% CO2. The substrate used for the assay fluorescence intensity (FLINT) readout was resorufin-beta-D-galactopiranoside (Sigma-Aldrich) at 5uM per well. It was diluted in PBS supplemented with the soft detergent Igepal (Fluka). The class given is functional, organism-based, Mus musculus. The following applies: Tulahuen, NIH3T3.

Series [12] relates to Trypanosoma brucei brucei. In words: GSK_TCAKS: pIC50 Trypanosoma brucei viability assay using luminiscence. Assay plates (1536-well) were prepared. T. brucei cultures were harvested and counted in a CASY cell counter. A parasite suspension was prepared at a final concentration of 5 * 10^4 cells/mL in complete HMI9 medium and 6uL was dispensed to all wells containing compounds using a Multidrop Combi dispenser. 6uL of HMI9 media with 0.4% DMSO were dispensed to control columns. Plates were incubated for 24 h at 37C, 5% CO2 then tempered for 10 min at room temperature. ATP content was quantified by adding 4 uL of CellTiter-Glo Reagent (Promega) according to the manufacturer's instructions. Luminescence was measured using a ViewLux. The settings on record: Lister 427, CASY. The class given is functional, organism-based. In general terms: In ATP-based viability assays light output follows the ATP content of the culture.

For series [13], the system named is Trypanosoma cruzi. Described as §1, with “Trypanosoma cruzi” for “H2C9”, “Amastigotes/Cell.” for “H9c2 Host Cardiomyocytes.”, “number” for “Number”, “amastigotes per cell as infection level measurement.” for “H9c2 Host Cardiomyocytes nuclei to determine drug-related cytotoxicity.”. The class given is functional, organism-based, Rattus norvegicus. The settings on record: H9c2, 4 h.

pIC50: −log10 of the molar value.

Usually pIC50 stands for −log10 of the IC50, conventionally taken in molar units. A word on the IC50: it is the concentration that gives 50% inhibition. Low values mean inhibition by little substance, high ones a need for much substance. For `CC(C)N(C(=O)CN1C(=O)C(N)C(=O)N(c2ccccc2)c2ccccc21)c1ccccc1` (stereo unspecified), the negative-log IC50 (pIC50) in series [1] was below 4.30; in series [3] it was 6.50; in [4], below 4.30; in series [5], 4.70; in [6] it was below 4.30; in [7], 6.50. Moreover, the negative-log IC50 (pIC50) in series [8] is below 4.40; in series [9] it was below 4.30; in [10] it was below 4.30; in series [11], 6.50; in series [12], below 4.40; in series [13] it was 6.40. Besides, the concentration for half-maximal inhibition (IC50) at 48 h in [2] is above 100 µM.

Take `Cc1ccc(S(=O)(=O)Nc2ccc(CN3CCN(C(=O)c4cccc(C#N)c4)CC3)cc2)cc1`: the pIC50 is below 4.30 in series [1]; below 4.00 in series [3]; below 4.30 in [4]; below 4.30 in series [5]; below 4.30 in series [6]; 6.30 in series [7]. For the same compound, the pIC50 is 6.80 in series [8]; 5.00 in [9]; 4.60 in series [10]; 6.30 in [11]; 6.50 in [12]; 6.40 in series [13]. This compound had an IC50 at 48 h in [2] above 100 µM.

For the compound `O=c1cc(NCCCNC2CCOc3c(I)cc(Cl)cc32)[nH]c2ccccc12` (stereo unspecified), the pIC50 in series [1] is 4.70; in [3], 4.80; in [4] it was 4.70; in [5] it was 4.60; in series [6], 4.60; in series [7], 6.50. For the same compound, the pIC50 was 8.00 in [8]; 4.50 in series [9]; 4.90 in series [10]; 6.10 in [11]; 7.70 in series [12]; 6.80 in [13]. In series [2], this compound gave an IC50 at 48 h of 63.1 µM.

Take `CC1(C)CCC(=Cc2ccc(Cl)cc2)CC1(O)Cn1ccnc1` (stereo unspecified): the pIC50 in series [1] is 5.10; in series [3] it was 7.30; in [4], 4.90; in [5] it was 4.80; in series [6], 4.50; in [7], 8.10. Moreover, the negative-log IC50 (pIC50) was 5.00 in series [8]; 5.60 in series [9]; 5.70 in series [10]; 8.20 in series [11]; 4.60 in series [12]; 8.30 in series [13]. The compound further showed a half-inhibitory concentration (IC50) at 48 h in series [2] of 50.1 µM.

Take `Cc1c([N+](=O)[O-])c(C(=O)Nc2sc3c(c2C#N)CCC(C)C3)nn1C` (stereo unspecified): the pIC50 is 4.50 in series [1]; below 4.00 in [3]; below 4.30 in series [4]; 4.90 in [5]; below 4.30 in [6]; 5.60 in [7]. Further, the pIC50 in series [8] is below 4.40; in [9], 4.60; in [10], 4.80; in series [11] it was 5.60; in [12], below 4.40; in series [13] it was 5.80. The compound also had a half-inhibitory concentration (IC50) at 48 h in series [2] above 100 µM.

Consider `O=C1CN(C2CCCc3c(OCc4ccncc4)cccc32)C(=O)N1C1CCCCC1` (stereo unspecified), for which the negative logarithm of the IC50 (pIC50) in series [1] is below 4.30; in series [3], 7.70; in [4], below 4.30; in [5], below 4.30; in series [6] it was below 4.30; in series [7], 7.80. Also, the negative logarithm of the IC50 (pIC50) was 4.80 in series [8]; below 4.30 in [9]; below 4.30 in series [10]; 6.60 in series [11]; below 4.40 in series [12]; 7.90 in series [13]. Moreover, the IC50 at 48 h in [2] is above 100 µM.

`CNc1cncc(C2CCCN2C(=O)Cc2ccc3ccccc3c2)n1` (stereo unspecified): the pIC50 is below 4.30 in series [1]; 7.00 in [3]; below 4.30 in series [4]; below 4.30 in series [5]; below 4.30 in [6]; 6.80 in series [7]. Besides, the pIC50 in [8] was below 4.40; in [9] it was below 4.30; in series [10], below 4.30; in series [11] it was 7.10; in series [12] it was below 4.40; in series [13], 6.80. For the same compound, in [2], the IC50 at 48 h was above 100 µM.
